The conditions of the data set: 101.33 kPa, Liquid; for speed of sound: Pulse-echo method; for mass density: Pycnometric method.

Among the data in the NIST ThermoML archive (doi:10.1021/je900237e) are speed of sound and mass density values, retold here.

± gives the expanded uncertainty stated by the source.

The speed of sound is how fast a sound wave travels through the sample. For orientation: mass density means mass per unit of volume. With `c1ccccc1` [benzene], for the setting “298.15 K”, the speed of sound stood at 1298 ± 5 m/s and the mass density is given as 873.64 ± 5.5 kg/m3.
Regarding `Cc1ccccc1N` [2-methylaniline], the mass density (298.15 K) was found to be 994.28 ± 0.57 kg/m3. Where the note is “308.15 K”, the speed of sound stood at 1603 ± 2.3 m/s.
Consider `Cc1ccccc1` [toluene], for which, where the note is “298.15 K”, the speed of sound stood at 1305 ± 5 m/s and the mass density was 862.17 ± 5.4 kg/m3.
For the compound `Cc1ccc(C)cc1` [1,4-dimethylbenzene], under “298.15 K”, the speed of sound turned out to be 1310 ± 2 m/s and the mass density was 858.63 ± 0.45 kg/m3.
The corresponding values for `Cc1ccccc1C` [1,2-dimethylbenzene] are 1344 ± 2 m/s and 875.9 ± 0.46 kg/m3.
